Reference: US6017935A, “7-sulfur substituted paclitaxels” (Bristol-Myers Squibb Company, priority 1998, dated 2000)

Tested on: not given
Experiment: not given
Conditions: background statement; cited from earlier work
In the case of `CC(=O)O[C@@]12CO[C@@H]1C[C@H](O)[C@@]1(C)C(=O)[C@H](O)C3=C(C)[C@@H](OC(=O)[C@H](O)[C@@H](NC(=O)OC(C)(C)C)c4ccccc4)C[C@@](O)([C@@H](OC(=O)c4ccccc4)[C@H]21)C3(C)C` [docetaxel], the antitumor activity is given as “good antitumor activity”.

Tested on: not given
Experiment: not given
Conditions: background statement; cited from earlier work
Remark: another data set of the same source
For `CC(=O)O[C@H]1C(=O)[C@@]2(C)[C@H]([C@H](OC(=O)c3ccccc3)[C@]3(O)C[C@H](OC(=O)[C@H](O)[C@@H](NC(=O)c4ccccc4)c4ccccc4)C(C)=C1C3(C)C)[C@]1(OC(C)=O)CO[C@@H]1C[C@@H]2O` [paclitaxel], the “antitumor activity in in vivo animal models” value is listed as “excellent antitumor activity”.

Tested on: HCT-116 human colon carcinoma cells
Experiment: Cytotoxicity (in vitro) MTS assay in HCT-116 human colon carcinoma cells
Type: cell-based
Conditions: Homo sapiens, HCT-116, 72 h, read-out: IC50 HCT 116, HCT-116 cells, MTS assay, 72 hours at 37° C.; drug concentration required to inhibit cell proliferation to 50% of untreated control
Procedure: Cytoxicity was assessed in HCT-116 human colon carcinoma cells by MTS (3-(4,5-dimethylthiazol-2-yl)-5-(3-carboxymethoxyphenyl)-2-(4-sulphenyl)-2H-tetrazolium, inner salt) assay as reported in T. L. Riss, et al., "Comparison of MTT, XTT, and a novel tetrazolium compound MTS for in vitro proliferation and chemosensitivity assays.", Mol. Biol. Cell 3 (Suppl.):184a, 1992. Cells were plated at 4,000 cell/well in 96 well microtiter plates and 24 hours later drugs were added and serial diluted. The cells were incubated at 37° C. for 72 hours at which time the tetrazolium dye, MTS at 333 μg/ml (final concentration), in combination with the electron coupling agent phenazine methosulfate at 25 μM (final concentration) was added. A dehydrogenase enzyme in live cell reduces the MTS to a form that absorbs light at […] which can be quantitated spectrophotometrically. The greater the absorbance the greater the number of live cells. The results are expressed as an IC50, which is the drug concentration required to inhibit cell proliferation (i.e. absorbance at 450 nm) to 50% of that of untreated control cells.
For `CC(=O)O[C@H]1C(=O)[C@]2(C)[C@@H](SC[S+](C)[O-])C[C@H]3OC[C@@]3(OC(C)=O)[C@H]2[C@H](OC(=O)c2ccccc2)[C@]2(O)C[C@H](OC(=O)[C@H](O)[C@@H](NC(=O)c3ccccc3)c3ccccc3)C(C)=C1C2(C)C` (stereo partly drawn) [31a&b, 7-deoxy-7β-methylsulfinylmethylthiopaclitaxel], the IC50 was 6.48 nM. Work on `CS[C@@H]1C[C@H]2OC[C@@]2(OC(C)=O)[C@H]2[C@H](OC(=O)c3ccccc3)[C@]3(O)C[C@H](OC(=O)[C@H](O)[C@@H](NC(=O)c4ccccc4)c4ccccc4)C(C)=C([C@@H](OC(C)=O)C(=O)[C@@]21C)C3(C)C` [Compound 5a, 7-deoxy-7α-thiomethylpaclitaxel] yielded an IC50 of 13.1 nM. `CC(=O)O[C@H]1C(=O)[C@@]2(C)[C@H]([C@H](OC(=O)c3ccccc3)[C@]3(O)C[C@H](OC(=O)[C@H](O)[C@@H](NC(=O)c4ccccc4)c4ccccc4)C(C)=C1C3(C)C)[C@]1(OC(C)=O)CO[C@@H]1C[C@@H]2S` [Compound 14a, 7-deoxy-7β-thiopaclitaxel] showed an IC50 of 13.5 nM. In the case of `COCS[C@H]1C[C@H]2OC[C@@]2(OC(C)=O)[C@H]2[C@H](OC(=O)c3ccccc3)[C@]3(O)C[C@H](OC(=O)[C@H](O)[C@@H](NC(=O)c4ccccc4)c4ccccc4)C(C)=C([C@@H](OC(C)=O)C(=O)[C@]12C)C3(C)C` [Compound 16a, 7-deoxy-7β-thiomethoxymethyl paclitaxel], the IC50 is reported as 0.5 nM. `CS[C@H]1C[C@H]2OC[C@@]2(OC(C)=O)[C@H]2[C@H](OC(=O)c3ccccc3)[C@]3(O)C[C@H](OC(=O)[C@H](O)[C@@H](NC(=O)c4ccccc4)c4ccccc4)C(C)=C([C@@H](OC(C)=O)C(=O)[C@]12C)C3(C)C` [Compound 18a, 7-deoxy-7β-thiomethylpaclitaxel] showed an IC50 of 0.2 nM. Molecule `CC(=O)O[C@H]1C(=O)[C@]2(C)[C@@H](SCCO)C[C@H]3OC[C@@]3(OC(C)=O)[C@H]2[C@H](OC(=O)c2ccccc2)[C@]2(O)C[C@H](OC(=O)[C@H](O)[C@@H](NC(=O)c3ccccc3)c3ccccc3)C(C)=C1C2(C)C` [Compound 20a, 7-deoxy-7β-(2-hydroxethylthio)paclitaxel] has an IC50 of 0.82 nM. Molecule `CS[C@H]1C[C@H]2OC[C@@]2(OC(C)=O)[C@H]2[C@H](OC(=O)c3ccccc3)[C@]3(O)C[C@H](OC(=O)[C@H](O)[C@@H](NC(=O)OC(C)(C)C)c4ccccc4)C(C)=C([C@@H](OC(C)=O)C(=O)[C@]12C)C3(C)C` [Compound 22a, 3'-NH-Boc-7-deoxy-7β-thiomethylpaclitaxel] has an IC50 of 0.3 nM. With `CCS[C@H]1C[C@H]2OC[C@@]2(OC(C)=O)[C@H]2[C@H](OC(=O)c3ccccc3)[C@]3(O)C[C@H](OC(=O)[C@H](O)[C@@H](NC(=O)c4ccccc4)c4ccccc4)C(C)=C([C@@H](OC(C)=O)C(=O)[C@]12C)C3(C)C` [Compound 24a, 7-deoxy-7β-thioethylpaclitaxel] the IC50 was 4.02 nM. With `CC(=O)O[C@H]1C(=O)[C@]2(C)[C@@H](SCC#N)C[C@H]3OC[C@@]3(OC(C)=O)[C@H]2[C@H](OC(=O)c2ccccc2)[C@]2(O)C[C@H](OC(=O)[C@H](O)[C@@H](NC(=O)c3ccccc3)c3ccccc3)C(C)=C1C2(C)C` [Compound 25a] the IC50 was under 0.04 nM. For `C=CS[C@H]1C[C@H]2OC[C@@]2(OC(C)=O)[C@H]2[C@H](OC(=O)c3ccccc3)[C@]3(O)C[C@H](OC(=O)[C@H](O)[C@@H](NC(=O)c4ccccc4)c4ccccc4)C(C)=C([C@@H](OC(C)=O)C(=O)[C@]12C)C3(C)C` [Compound 27a, 7-deoxy-7β-thiovinylpaclitaxel], the IC50 was 1.2 nM. `CC(=O)O[C@H]1C(=O)[C@]2(C)[C@@H](SC#N)C[C@H]3OC[C@@]3(OC(C)=O)[C@H]2[C@H](OC(=O)c2ccccc2)[C@]2(O)C[C@H](OC(=O)[C@H](O)[C@@H](NC(=O)c3ccccc3)c3ccccc3)C(C)=C1C2(C)C` [Compound 28a, 7-deoxy-7β-thiocyanatopaclitaxel] gave an IC50 of 1.8 nM. In the case of `CC(=O)O[C@H]1C(=O)[C@]2(C)[C@@H](SCc3ccccn3)C[C@H]3OC[C@@]3(OC(C)=O)[C@H]2[C@H](OC(=O)c2ccccc2)[C@]2(O)C[C@H](OC(=O)[C@H](O)[C@@H](NC(=O)c3ccccc3)c3ccccc3)C(C)=C1C2(C)C` [Compound 30a, 7-deoxy-7β-(thio-2-picolyl)-paclitaxel], the IC50 is reported as 1.12 nM. `COC(=O)/C=C/S[C@H]1C[C@H]2OC[C@@]2(OC(C)=O)[C@H]2[C@H](OC(=O)c3ccccc3)[C@]3(O)C[C@H](OC(=O)[C@H](O)[C@@H](NC(=O)c4ccccc4)c4ccccc4)C(C)=C([C@@H](OC(C)=O)C(=O)[C@]12C)C3(C)C` [Compound 34a, 7-deoxy-7β-thio-(3-methylacrylate)paclitaxel] showed an IC50 of 6.97 nM. `COC(=O)/C=C\S[C@H]1C[C@H]2OC[C@@]2(OC(C)=O)[C@H]2[C@H](OC(=O)c3ccccc3)[C@]3(O)C[C@H](OC(=O)[C@H](O)[C@@H](NC(=O)c4ccccc4)c4ccccc4)C(C)=C([C@@H](OC(C)=O)C(=O)[C@]12C)C3(C)C` [Compound 35a, 7-deoxy-7β-thio-(3-methylacrylate)paclitaxel] showed an IC50 of 1.76 nM. `CC(=O)O[C@H]1C(=O)[C@@]2(C)[C@H]([C@H](OC(=O)c3ccccc3)[C@]3(O)C[C@H](OC(=O)[C@H](O)[C@@H](NC(=O)c4ccccc4)c4ccccc4)C(C)=C1C3(C)C)[C@]1(OC(C)=O)CO[C@@H]1C[C@@H]2O` [paclitaxel] showed an IC50 of 1.71 to 2.28 nM.

Same assay, conditions: Homo sapiens; HCT-116 cells, MTS assay, 72 hours at 37° C.; drug concentration required to inhibit cell proliferation to 50% of untreated control; read-out: IC50 HCT 116
In the case of `CC(=O)O[C@H]1C(=O)[C@@]2(C)[C@H]([C@H](OC(=O)c3ccccc3)[C@]3(O)C[C@H](OC(=O)[C@H](O)[C@@H](NC(=O)c4ccccc4)c4ccccc4)C(C)=C1C3(C)C)[C@]1(OC(C)=O)CO[C@@H]1C[C@H]2S(C)(=O)=O` [Compound 7a, 7-deoxy-7α-methylsulfonylpaclitaxel], the IC50 is reported as 72.3 nM. For `CC(=O)O[C@@H]1C2=C(C)[C@@H](OC(=O)[C@H](O)[C@@H](NC(=O)c3ccccc3)c3ccccc3)C[C@@](O)([C@@H](OC(=O)c3ccccc3)[C@@H]3[C@]4(OC(C)=O)CO[C@@H]4C[C@@H]4[C@@]3(C)C1(O)CS4(=O)=O)C2(C)C` (stereo partly drawn) [Compound 9a], the IC50 was 2.99 nM.

Same assay, conditions: read-out: IC50 HCT 116; HCT-116 cells, MTS assay, 72 hours at 37° C.; drug concentration required to inhibit cell proliferation to 50% of untreated control
Work on `CC(=O)O[C@H]1C(=O)[C@]2(C)[C@@H]([S+](C)[O-])C[C@H]3OC[C@@]3(OC(C)=O)[C@H]2[C@H](OC(=O)c2ccccc2)[C@]2(O)C[C@H](OC(=O)[C@H](O)[C@@H](NC(=O)c3ccccc3)c3ccccc3)C(C)=C1C2(C)C` (single isomer, unassigned) [Compound 29a, 7-deoxy-7β-methylsulfinyl-paclitaxel] yielded an IC50 of 3.99 nM. Work on `CC(=O)O[C@H]1C(=O)[C@]2(C)[C@@H]([S+](C)[O-])C[C@H]3OC[C@@]3(OC(C)=O)[C@H]2[C@H](OC(=O)c2ccccc2)[C@]2(O)C[C@H](OC(=O)[C@H](O)[C@@H](NC(=O)c3ccccc3)c3ccccc3)C(C)=C1C2(C)C` (single isomer, unassigned) [Compound 29b, 7-deoxy-7β-methylsulfinyl-paclitaxel] yielded an IC50 of 12.1 nM.
